The values below come from patent US8846656B2, “Tetrahydropyrido-pyridine and tetrahydropyrido-pyrimidine compounds and use thereof as C5a receptor modulators” (Novartis AG, priority 2011, dated 2014).

Assay [1] concerns the target human C5aR (Homo sapiens (Human), UniProt P21730). Put plainly: FLIPR assay: inhibition of C5a-mediated calcium mobilization. Particulars: stable cell line over expressing human C5aR & Gα15, human C5a at EC50 (0.1-0.25 nM). The assay is classed as cell-based. On the procedure:
Compounds were tested for their ability to inhibit C5a-mediated calcium mobilization using a stable cell line over expressing the human C5aR & the Gα15 protein on the FLIPR (Fluorescent Imaging Plate Reader) Tetra system. Cells were maintained in culture media containing DMEM (Dulbecco's Modified Eagle Medium) with 4.5 g/L glucose, 10% fetal bovine serum, 100 U/mL, 1× non-essential amino acid, and 250 μg/mL G418 (Geneticin). Prior to testing of compounds, cells were plated at 10,000 cells/well in clear bottom 384-well black plate, and incubated overnight at 37° C. with 5% CO2. On the day of experiment, culture media was removed, and replaced with assay buffer HBSS (Hanks' Balanced Salt Solution) with 20 mM HEPES (4-(2-hydroxyethyl)-1-piperazineethanesulfonic acid) and 0.1% BSA (bovine serum albumin) BSA containing calcium 5 dye (Molecular Devices) and 2.5 mM probenecid. After 1 hour incubation at 37° C., 5% CO2 for 60 min, cells were pre-incubated with compounds for 30 minutes at room temperature, in 1% DMSO (dimethyl sulfoxide).

The test system of assay [2] is CD11b. Kind of assay: Human whole blood CD11b up-regulation assay. It counts as cell-based. The settings on record: Homo sapiens, 2 nM human C5a, CD15+ granulocytes, read-out: hCD11b IC50. On the procedure:
Whole blood was collected in sodium heparin tubes and the assay started within 2 hours of the blood draw. The blood was incubated with compounds in 1% DMSO (dimethyl sulfoxide) at room temperature for 10 minutes with gentle rocking. 2 nM of human C5a was then added for 15 minutes at room temperature with gentle rocking. Following the C5a incubation period cells were washed once with cold FACS (fluorescence-activated cell sorting) buffer (phosphate buffered saline+0.5% bovine serum albumin) FITC (fluorescein isothiocyanate) mouse anti-human CD15 and PE-Cy5 (phycoerythrin-cyanine 5) mouse anti-human CD11b antibodies (Becton Dickinson) were gently mixed with the cells and allowed to incubate for 30 minutes on ice protected from the light. Cells were then washed three times with cold FACS buffer. Red blood cells (RBC) were lysed by incubating with BD FACS lysis buffer (Becton Dickinson) for 10 minutes at room temperature. Cells were pelleted and the lysing procedure was repeated until all RBCs were lysed. The remaining leukocytes were resuspended in BD lysis buffer. Samples were acquired on the LSR^11 flow cytometer and 10,000 events of the CD15+ granulocyte population were collected. The CD11b median fluorescence intensity of the CD 15+ cell population was evaluated using FACSDiva software (Becton Dickinson).

The IC50 is the concentration that inhibits the measured activity by half.

Sequence of human C5aR (P21730 whole entry): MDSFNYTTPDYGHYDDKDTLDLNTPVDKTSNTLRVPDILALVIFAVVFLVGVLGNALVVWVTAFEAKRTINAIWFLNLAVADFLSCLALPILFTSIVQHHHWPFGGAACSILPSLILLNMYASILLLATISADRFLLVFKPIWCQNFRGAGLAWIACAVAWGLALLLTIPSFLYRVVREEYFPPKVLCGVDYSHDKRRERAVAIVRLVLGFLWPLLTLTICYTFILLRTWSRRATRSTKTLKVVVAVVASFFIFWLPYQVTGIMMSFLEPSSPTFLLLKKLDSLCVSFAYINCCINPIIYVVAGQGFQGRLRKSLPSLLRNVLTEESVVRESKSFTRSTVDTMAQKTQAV

As to `CO[C@@H]1CCN(c2nc(-c3c(C)cccc3C)nc3c2CN(c2cc(C(C)C)nn2C)CC3)[C@H](C)C1` [Example 23-C, 2-(2,6-dimethylphenyl)-6-(3-isopropyl-1-methyl-1H-pyrazol-5-yl)-4-((2R,4R)-4-methoxy-2-methylpiperidin-1-yl)-5,6,7,8-tetrahydropyrido[4,3-d]pyrimidine], the values for the IC50 in assay [1] and in assay [2] were 0.04 µM and 0.095 µM, respectively.
As to `CO[C@H]1CCN(c2nc(-c3c(C)cccc3C)nc3c2CN(c2cc(C(C)C)ccc2C)CC3)CC1(C)C` [Example 19-AD, (S)-2-(2,6-dimethylphenyl)-6-(5-isopropyl-2-methylphenyl)-4-(4-methoxy-3,3-dimethylpiperidin-1-yl)-5,6,7,8-tetrahydropyrido[4,3-d]pyrimidine], the IC50 in assay [1] came to 0.002 µM; in assay [2], 0.026 µM.
Taken in the same sequence, the figures for `CO[C@@H]1CCN(c2nc(-c3c(C)cccc3Cl)nc3c2CN(c2cc(C(C)C)ccc2C)CC3)C[C@H]1C` [Example 19-AH, 2-(2-chloro-6-methylphenyl)-6-(5-isopropyl-2-methylphenyl)-4-((3R,4R)-4-methoxy-3-methylpiperidin-1-yl)-5,6,7,8-tetrahydropyrido[4,3-d]pyrimidine] were 0.004 µM and 0.017 µM.
Taken in the same sequence, the figures for `CO[C@@H]1CCN(c2nc(-c3cc(C)ccc3C)nc3c2CN(c2cc(C(C)C)ccc2C)CC3)[C@H](C)C1` [Example 21-E, 2-(2,5-dimeethylphenyl)-6-(5-isopropyl-2-methylphenyl)-4-((2R,4R)-4-methoxy-2-methylpiperidin-1-yl)-5,6,7,8-tetrahydropyrido[4,3-d]pyrimidine] were 0.023 µM and 0.422 µM.
In the case of `Cc1ccc2[nH]nc(C)c2c1-c1nc2c(c(N3CCOC[C@H]3C)n1)CN(c1c(Cl)c(C3CC3)nn1C)CC2` [Example 70-J], the IC50 came to 0.012 µM in assay [1] and 0.039 µM in assay [2].
Consider `COc1nc(-c2c(C)ccc3[nH]nc(C)c23)nc2c1CN(c1cc(C3(C)COC3)ccc1C)CC2` [Example 31-H, 2-(3,5-dimethyl-1H-indazol-4-yl)-4-methoxy-6-(2-methyl-5-(3-methyloxetan-3-yl)phenyl)-5,6,7,8-tetrahydropyrido[4,3-d]pyrimidine], for which the results for the IC50 in assay [1] and in assay [2] were 0.077 µM and 0.072 µM, respectively.
The corresponding values for `Cc1ccc(C(C)C)cc1N1CCc2nc(-c3c(C)ccc4[nH]nc(C)c34)nc(N3CC(N(C)C)C3)c2C1` [Example 65-A, 1-(2-(3,5-Dimethyl-1H-indazol-4-yl)-6-(5-isopropyl-2-methylphenyl)-5,6,7,8-tetrahydropyrido[4,3-d]pyrimidin-4-yl)-N,N-dimethylazetidin-3-amine] are 0.001 µM and 0.03 µM.
As for `CC(=O)N1CCN(c2nc(-c3cccc4[nH]cc(C)c34)nc3c2CN(c2cc(C4(C)COC4)ccc2C)CC3)[C@H](C)C1` [Example 26-B, (R)-1-(3-Methyl-4-(2-(3-methyl-1H-indol-4-yl)-6-(2-methyl-5-(3-methyloxetan-3-yl)phenyl)-5,6,7,8-tetrahydropyrido[4,3-d]pyrimidin-4-yl)piperazin-1-yl)ethanone], the IC50 in assay [1] came out at 0.02 µM; in assay [2], 0.907 µM.
For the compound `CO[C@@H]1CCN(c2nc(-c3c(C(F)(F)F)cnc4[nH]ccc34)nc3c2CN(c2cc(C(C)C)ccc2C)CC3)[C@H](C)C1` [Example 22-C, 6-(5-Isopropyl-2-methylphenyl)-4-((2R,4R)-4-methoxy-2-methylpiperidin-1-yl)-2-(5-(trifluoromethyl)-1H-pyrrolo[2,3-b]pyridin-4-yl)-5,6,7,8-tetrahydropyrido[4,3-d]pyrimidine], the values for the half-inhibitory concentration (IC50) in assay [1] and in assay [2] were 0.002 µM and 0.017 µM, respectively.
Taken in the same sequence, the figures for `CO[C@H]1CCN(c2nc(-c3c(C(C)C)ccc4[nH]ncc34)nc3c2CN(c2cc(C4(C)COC4)ccc2C)CC3)CC1(C)C` [Example 19-AC, (S)-2-(5-isopropyl-1H-indazol-4-yl)-4-(4-methoxy-3,3-dimethylpiperidin-1-yl)-6-(2-methyl-5-(3-methyloxetan-3-yl)phenyl)-5,6,7,8-tetrahydropyrido[4,3-d]pyrimidine] were 0.004 µM and 0.05 µM.
As for `CCn1nc(C2CC2)c(Cl)c1N1CCc2nc(-c3c(C)ccc4[nH]nc(C)c34)nc(N3CC(N(C)C)C3)c2C1` [Example 70-K, 1-(6-(4-chloro-3-cyclopropyl-1-ethyl-1H-pyrazol-5-yl)-2-(3,5-dimethyl-1H-indazol-4-yl)-5,6,7,8-tetrahydropyrido[4,3-d]pyrimidin-4-yl)-N,N-dimethylazetidin-3-amine], the IC50 was 0.02 µM in assay [1] and 0.037 µM in assay [2].
Regarding `CCn1nc(C2CC2)c(Cl)c1N1CCc2nc(-c3c(C)ccc4[nH]nc(C)c34)nc(N3CCOC[C@H]3C)c2C1` [Example 70-G, (R)-4-(6-(4-Chloro-3-cyclopropyl-1-ethyl-1H-pyrazol-5-yl)-2-(3,5-dimethyl-1H-indazol-4-yl)-5,6,7,8-tetrahydropyrido[4,3-d]pyrimidin-4-yl)-3-methylmorpholine], the IC50 in assay [1] amounted to 0.009 µM; in assay [2], 0.019 µM.
The corresponding values for `CO[C@H]1C[C@H]2CC[C@@H](C1)N2c1nc(-c2c(C)ccc3[nH]nc(C)c23)nc2c1CN(c1c(F)c(C3CC3)nn1C)CC2` [Example 56-B] are 0.002 µM and 0.045 µM.
Taken in the same sequence, the figures for `[2H]C1([2H])c2c(C)cc(-c3cccc4[nH]cc(C)c34)nc2CCN1c1cc(C(C)C)ccc1C` [Example 40-S] were 0.078 µM and 0.793 µM.
The corresponding values for `CO[C@H]1CCN(c2nc(-c3ccc(F)c4[nH]cc(C)c34)nc3c2CN(c2cc(C(C)C)ccc2C)CC3)CC1(C)C` [Example 21-AF, (S)-2-(7-fluoro-3-methyl-1H-indol-4-yl)-6-(5-isopropyl-2-methylphenyl)-4-(4-methoxy-3,3-dimethylpiperidin-1-yl)-5,6,7,8-tetrahydropyrido[4,3-d]pyrimidine] are 0.004 µM and 0.028 µM.
With `Cc1ccc(C(C)C)cc1N1CCc2nc(-c3c(C)ccc4[nH]ncc34)nc(N3CCN(CC(N)=O)C[C@H]3C)c2C1` [Example 24-L, (R)-2-(4-(6-(5-isopropyl-2-methylphenyl)-2-(5-methyl-1H-indazol-4-yl)-5,6,7,8-tetrahydropyrido[4,3-d]pyrimidin-4-yl)-3-methylpiperazin-1-yl)acetamide], the IC50 in assay [1] was found to be 0.006 µM; in assay [2], 0.391 µM.
On to `CCOC1CN(c2nc(-c3c(C)ccc4[nH]nc(C)c34)nc3c2CN(c2c(Cl)c(C4CC4)nn2C)CC3)C1` [Example 68-B, 6-(4-Chloro-3-cyclopropyl-1-methyl-1H-pyrazol-5-yl)-2-(3,5-dimethyl-1H-indazol-4-yl)-4-(3-ethoxyazetidin-1-yl)-5,6,7,8-tetrahydropyrido[4,3-d]pyrimidine], for which the half-inhibitory concentration (IC50) in assay [1] is 0.002 µM; in assay [2], 0.017 µM.
Regarding `Cc1ccc(C(C)C)cc1N1CCc2nc(-c3c(C)ccc4[nH]nc(C)c34)nc(N3CC[C@@H](N(C)C)C3)c2C1` [Example 65-B, (R)-1-(2-(3,5-dimethyl-1H-indazol-4-yl)-6-(5-isopropyl-2-methylphenyl)-5,6,7,8-tetrahydropyrido[4,3-d]pyrimidin-4-yl)-N,N-dimethylpyrrolidin-3-amine], the figures for the IC50 in assay [1] and in assay [2] were 0.002 µM and 0.016 µM, respectively.
For the compound `CO[C@@H]1CCN(c2nc(-c3c(C)cccc3C)nc3c2CN(c2cc(C(F)(F)F)ccc2C)CC3)CC1(C)C` [Example 21-AB, (R)-2-(2,6-dimethylphenyl)-4-(4-methoxy-3,3-dimethylpiperidin-1-yl)-6-(2-methyl-5-(trifluoromethyl)phenyl)-5,6,7,8-tetrahydropyrido[4,3-d]pyrimidine], the half-maximal inhibitory concentration (IC50) in assay [1] was determined as 0.004 µM; in assay [2] it was 0.011 µM.
Taken in the same sequence, the figures for `[2H]C1([2H])c2c(C)cc(-c3c(CC)cccc3CC)nc2CCN1c1c(Cl)c(C2CC2)nn1C` [Example 42-I, 6-(4-chloro-3-cyclopropyl-1-methyl-1H-pyrazol-5-yl)-2-(2,6-diethylphenyl)-4-methyl-5,6,7,8-tetrahydro(5,5-^2H2)-1,6-naphthyridine] were 0.014 µM and 2.12 µM.
Taken in the same sequence, the figures for `CO[C@H]1CCN(c2nc(-c3c(C)ccc4[nH]nc(C)c34)nc3c2CN(c2c(F)c(C4CC4)nn2C)CC3)CC1(C)C` [Example 56-C, (S)-6-(3-cyclopropyl-4-fluoro-1-methyl-1H-pyrazol-5-yl)-2-(3,5-dimethyl-1H-indazol-4-yl)-4-(4-methoxy-3,3-dimethylpiperidin-1-yl)-5,6,7,8-tetrahydropyrido[4,3-d]pyrimidine] were 0.001 µM and 0.006 µM.
